Experimental data published in ChEMBL document CHEMBL4414578, “Design and synthesis of pentacyclic triterpene conjugates and their use in medicinal research” (Eur J Med Chem, 2019).
pEC50, pIC50: −log10 of the molar value.

Experiments:
[1] = test system: Human immunodeficiency virus 1; assay: Antiviral activity against HIV-1 NL4-3 infected in human MT-4 cells; assay type: functional, organism-based; conditions: Human immunodeficiency virus 1, NL4-3, MT4
A2780 = assay: Antitumor activity against human A2780 cells by SRB assay; assay type: functional, cell-based
518A2 = assay: Antitumor activity against human 518A2 cells by SRB assay; assay type: functional, cell-based
A549 = assay: Antitumor activity against human A549 cells by SRB assay; assay type: functional, cell-based
8505C = assay: Antitumor activity against human 8505C cells by SRB assay; assay type: functional, cell-based
MCF7 = assay: Antitumor activity against human MCF7 cells by SRB assay; assay type: functional, cell-based
Ehrlich = assay: Cytotoxicity against mouse Ehrlich carcinoma cells assessed as reduction in cell viability after 48 hrs by MTT assay; assay type: functional, cell-based
P815 = assay: Cytotoxicity against mouse P815 cells assessed as reduction in cell viability after 48 hrs by MTT assay; assay type: functional, cell-based; conditions: P815, 48 h
CCRF-CEM = assay: Cytotoxicity against human CCRF-CEM cells assessed as reduction in cell viability; assay type: functional, cell-based
DU-145 = assay: Cytotoxicity against human DU145 cells assessed as reduction in cell viability after 72 hrs by MTT assay; assay type: functional, cell-based; conditions: DU-145, 72 h
L132 = assay: Cytotoxicity against human L-132 cells assessed as reduction in cell viability after 72 hrs by MTT assay; assay type: functional, cell-based; conditions: L132, 72 h
PA-1 = assay: Cytotoxicity against human PA1 cells assessed as reduction in cell viability after 72 hrs by MTT assay; assay type: functional, cell-based; conditions: PA-1, 72 h
HT-29 = assay: Cytotoxicity against human HT-29 cells assessed as reduction in cell viability after 72 hrs by MTT assay; assay type: functional, cell-based; conditions: HT-29, 72 h
Leishmania infantum = assay: Antileishmanial activity against Leishmania infantum promastigotes after 2 to 24 hrs by Giemsa staining-based microscopic analysis; assay type: functional, organism-based
[2] = Selectivity index, ratio of IC50 for HEK293T cells tobIC50 for chloroquine-sensitive Plasmodium falciparum 3D7; assay type: toxicity; conditions: human, read-out: Ratio IC50
HEK-293T = assay: Cytotoxicity against HEK293T cells assessed as reduction in cell viability; assay type: cell-based; conditions: Homo sapiens
Plasmodium falciparum = assay: Antimalarial activity against chloroquine-sensitive Plasmodium falciparum 3D7 by flow cytometry analysis; assay type: functional, organism-based
[3] = test system: Human immunodeficiency virus 1; assay: Antiviral activity against HIV-1; assay type: functional, organism-based
[4] = test system: Human immunodeficiency virus 1; assay: Antiviral activity against HIV-1 3B; assay type: functional, organism-based; conditions: Human immunodeficiency virus 1, 3B

**Q.** With `C=C(C)[C@@H]1CC[C@]2(C(=O)OCc3cn([C@H]4C[C@H](n5cc(C)c(=O)[nH]c5=O)O[C@@H]4CO)nn3)CC[C@]3(C)[C@H](CC[C@@H]4[C@@]5(C)CC[C@H](OC(=O)CC(C)(C)C(=O)O)C(C)(C)[C@@H]5CC[C@]43C)[C@@H]12` as the molecule, how does the pEC50 [1] read?
**A.** 7.00

**Q.** Which results are given for `C=C(C)[C@@H]1CC[C@]2(C(=O)NCCNCCN)CC[C@]3(C)[C@H](CC[C@@H]4[C@@]5(C)CC[C@H](OC(C)=O)C(C)(C)[C@@H]5CC[C@]43C)[C@@H]12`?
**A.** pIC50 (A2780): 5.65 to 5.85; pIC50 (518A2): 5.65 to 5.85; pIC50 (A549): 5.65 to 5.85; pIC50 (8505C): 5.65 to 5.85; pIC50 (MCF7): 5.65 to 5.85

**Q.** With `CC(=O)O[C@H]1C(CCC[P+](c2ccccc2)(c2ccccc2)c2ccccc2)C[C@]2(C)[C@H]3CC[C@@H]4[C@H]5[C@H](C(C)C)CC[C@]5(C(=O)O)CC[C@@]4(C)[C@]3(C)CC[C@H]2C1(C)C` (some centres undefined) as the molecule, how does the pIC50 (Ehrlich) read?
**A.** 5.33 to 5.96

**Q.** What about the pIC50 (P815) of the same molecule?
**A.** 5.33 to 5.96

**Q.** With `C=C(/C=N/N=C/c1ccccn1)[C@@H]1CC[C@]2(C(=O)O)CC[C@]3(C)[C@H](CC[C@@H]4[C@@]5(C)CC[C@H](O)C(C)(C)[C@@H]5CC[C@]43C)[C@@H]12` as the molecule, how does the pIC50 (CCRF-CEM) read?
**A.** 5.32 to 5.42

**Q.** With `C=C(C)[C@@H]1CC[C@]2(C(=O)O)CC[C@]3(C)[C@H](CC[C@@H]4[C@@]5(C)CC/C(=N\Nc6ccccc6)C(C)(C)[C@@H]5CC[C@]43C)[C@@H]12` as the molecule, how does the pIC50 (DU-145) read?
**A.** 5.40 to 6.00

**Q.** And the pIC50 (L132)?
**A.** 5.40 to 6.00

**Q.** What about the pIC50 (PA-1) of the same molecule?
**A.** 5.40 to 6.00

**Q.** What about the pIC50 (HT-29) of the same molecule?
**A.** 5.40 to 6.00

**Q.** With `C=C(C)[C@@H]1CC[C@]2(C(=O)NCCN)CC[C@]3(C)[C@H](CC[C@@H]4[C@@]5(C)CC[C@H](O)C(C)(C)[C@@H]5CC[C@]43C)[C@@H]12` as the molecule, how does the pIC50 (CCRF-CEM) read?
**A.** 6.15

**Q.** With `C=C(C)[C@@H]1CC[C@]2(C(=O)O)CC[C@]3(C)[C@H](CC[C@@H]4[C@@]5(C)CC/C(=N\NC(C)=O)C(C)(C)[C@@H]5CC[C@]43C)[C@@H]12` as the molecule, how does the pIC50 (DU-145) read?
**A.** 5.40 to 6.00

**Q.** What about the pIC50 (L132) of the same molecule?
**A.** 5.40 to 6.00

**Q.** What about the pIC50 (PA-1) of the same molecule?
**A.** 5.40 to 6.00

**Q.** What about the pIC50 (HT-29) of the same molecule?
**A.** 5.40 to 6.00

**Q.** With `C=C(CC=O)[C@@H]1CC[C@]2(COC(=O)n3ccnc3)CC[C@]3(C)[C@H](CC[C@@H]4[C@@]5(C)CC[C@H](O)C(C)(C)[C@@H]5CC[C@]43C)[C@@H]12` as the molecule, how does the pIC50 (Leishmania infantum) read?
**A.** 4.29

**Q.** With `C=C(/C=N/N=C/c1ccccc1[N+](=O)[O-])[C@@H]1CC[C@]2(C(=O)O)CC[C@]3(C)[C@H](CC[C@@H]4[C@@]5(C)CC[C@H](O)C(C)(C)[C@@H]5CC[C@]43C)[C@@H]12` as the molecule, how does the pIC50 (CCRF-CEM) read?
**A.** 5.32 to 5.42

**Q.** With `C=C(C)[C@@H]1CC[C@]2(C(=O)N3CCNCC3)CC[C@]3(C)[C@H](CC[C@@H]4[C@@]5(C)CC[C@H](O)C(C)(C)[C@@H]5CC[C@]43C)[C@@H]12` as the molecule, how does the pIC50 (CCRF-CEM) read?
**A.** 6.10

**Q.** With `C=C(C)[C@@H]1CC[C@]2(C(=O)O)CC[C@]3(C)[C@H](CC[C@@H]4[C@@]5(C)CC/C(=N\Nc6ccc(F)cc6)C(C)(C)[C@@H]5CC[C@]43C)[C@@H]12` as the molecule, how does the pIC50 (DU-145) read?
**A.** 5.40 to 6.00

**Q.** What about the pIC50 (L132) of the same molecule?
**A.** 5.40 to 6.00

**Q.** And the pIC50 (PA-1)?
**A.** 5.40 to 6.00

**Q.** What about the pIC50 (HT-29) of the same molecule?
**A.** 5.40 to 6.00

**Q.** With `CC(=O)O[C@H]1C(CCC[P+](c2ccccc2)(c2ccccc2)c2ccccc2)C[C@]2(C)[C@H]3CC[C@@H]4[C@H]5[C@H](C(C)C)CC[C@]5(C(=O)OCc5ccccc5)CC[C@@]4(C)[C@]3(C)CC[C@H]2C1(C)C` (some centres undefined) as the molecule, how does the pIC50 (Ehrlich) read?
**A.** 5.33 to 5.96

**Q.** And the pIC50 (P815)?
**A.** 5.33 to 5.96

**Q.** With `COC(=O)[C@]12CC[C@@H](C(C)C)[C@@H]1[C@H]1CC[C@@H]3[C@@]4(C)CC(CCC[P+](c5ccccc5)(c5ccccc5)c5ccccc5)[C@@H](OC(C)=O)C(C)(C)[C@@H]4CC[C@@]3(C)[C@]1(C)CC2` (some centres undefined) as the molecule, how does the pIC50 (Ehrlich) read?
**A.** 5.33 to 5.96

**Q.** And the pIC50 (P815)?
**A.** 5.33 to 5.96

**Q.** With `C=C(/C=N/N=C/c1ccccc1O)[C@@H]1CC[C@]2(C(=O)O)CC[C@]3(C)[C@H](CC[C@@H]4[C@@]5(C)CC[C@H](O)C(C)(C)[C@@H]5CC[C@]43C)[C@@H]12` as the molecule, how does the pIC50 (CCRF-CEM) read?
**A.** 5.32 to 5.42

**Q.** Which selectivity ratio [2] does the source give for `C=C(C)[C@@H]1CC[C@]2(C(=O)NCCCN3CCN(CCCN)CC3)CC[C@]3(C)[C@H](CC[C@@H]4[C@@]5(C)CC[C@H](OC(C)=O)C(C)(C)[C@@H]5CC[C@]43C)[C@@H]12` here?
**A.** 23

**Q.** And the pIC50 (HEK-293T)?
**A.** 5.40

**Q.** And the pIC50 (Plasmodium falciparum)?
**A.** 6.66

**Q.** With `C=C(C)[C@@H]1CC[C@]2(C(=O)OCCCCCCCC(=O)N[C@@H](CC(C)C)[C@@H](O)CC(=O)O)CC[C@]3(C)[C@H](CC[C@@H]4[C@@]5(C)CC[C@H](O)C(C)(C)[C@@H]5CC[C@]43C)[C@@H]12` as the molecule, how does the pIC50 [3] read?
**A.** 7.30

**Q.** Which results are given for `COC(=O)[C@]12CC[C@@H](C(C)C)[C@@H]1[C@H]1CC[C@@H]3[C@@]4(C)CC(CCC[P+](c5ccccc5)(c5ccccc5)c5ccccc5)[C@H](OC(C)=O)C(C)(C)[C@@H]4CC[C@@]3(C)[C@]1(C)CC2` (some centres undefined)?
**A.** pIC50 (Ehrlich): 5.33 to 5.96; pIC50 (P815): 5.33 to 5.96

**Q.** With `C=C(C)[C@@H]1CC[C@]2(C(=O)O)CC[C@]3(C)[C@H](CC[C@@H]4[C@@]5(C)CC/C(=N\Nc6c(Cl)cc(Cl)cc6Cl)C(C)(C)[C@@H]5CC[C@]43C)[C@@H]12` as the molecule, how does the pIC50 (DU-145) read?
**A.** 5.40 to 6.00

**Q.** What about the pIC50 (L132) of the same molecule?
**A.** 5.40 to 6.00

**Q.** And the pIC50 (PA-1)?
**A.** 5.40 to 6.00

**Q.** What about the pIC50 (HT-29) of the same molecule?
**A.** 5.40 to 6.00

**Q.** With `C=C(CO)[C@@H]1CC[C@]2(C(=O)OCCCCCCCCCCC(=O)O)CC[C@]3(C)[C@H](CC[C@@H]4[C@@]5(C)CC[C@H](O)C(C)(C)[C@@H]5CC[C@]43C)[C@@H]12` as the molecule, how does the pIC50 [3] read?
**A.** 7.30

**Q.** With `C=C(C)[C@@H]1CC[C@]2(C(=O)n3ccnc3)CC[C@]3(C)[C@H](CC[C@@H]4[C@@]5(C)C=C(OC(=O)n6ccnc6)C(=O)C(C)(C)[C@@H]5CC[C@]43C)[C@@H]12` as the molecule, how does the pIC50 (Leishmania infantum) read?
**A.** 4.59

**Q.** With `C=C(C)[C@@H]1CC[C@]2(C(=O)O)CC[C@]3(C)[C@H](CC[C@@H]4[C@@]5(C)CC[C@H](O)C(C)(C)[C@@H]5CC[C@]43C)[C@@H]12` [BETULINIC ACID] as the molecule, how does the pIC50 (A2780) read?
**A.** 5.87 to 6.48

**Q.** And the pIC50 (518A2)?
**A.** 5.87 to 6.48

**Q.** What about the pIC50 (A549) of the same molecule?
**A.** 5.87 to 6.48

**Q.** And the pIC50 (Ehrlich)?
**A.** 4.27

**Q.** And the pIC50 (8505C)?
**A.** 5.87 to 6.48

**Q.** And the pIC50 (MCF7)?
**A.** 5.87 to 6.48

**Q.** And the pIC50 (P815)?
**A.** 4.39

**Q.** With `CCCCCCCCCCCCCCCCOP(=O)([O-])OCC[N+](C)(C)C` [MILTEFOSINE] as the molecule, how does the pIC50 (Leishmania infantum) read?
**A.** 5.22

**Q.** What about the pEC50 [4] of the same molecule?
**A.** 6.48 to 8.00

**Q.** With `CC1(C)CC[C@]2(C(=O)O)CC[C@]3(C)C(=CC[C@@H]4[C@@]5(C)CC[C@H](O)C(C)(C)[C@@H]5CC[C@]43C)[C@@H]2C1` [OLEANOLIC_ACID] as the molecule, how does the pEC50 [4] read?
**A.** 6.48 to 8.00

**Q.** With `C[C@H]1[C@H](C)CC[C@]2(C(=O)O)CC[C@]3(C)C(=CC[C@@H]4[C@@]5(C)CC[C@H](O)C(C)(C)[C@@H]5CC[C@]43C)[C@H]12` [URSOLIC ACID] as the molecule, how does the pEC50 [4] read?
**A.** 6.48 to 8.00

**Q.** With `Cc1cn([C@H]2C[C@H](N=[N+]=[N-])[C@@H](CO)O2)c(=O)[nH]c1=O` [ZIDOVUDINE] as the molecule, how does the pEC50 [1] read?
**A.** 7.00
